“And” between values parts separate entries of the source, which are not always exact repeats. Equal entries are not always repeated.
Tests used:
[1] = biological target: T1, (Homo sapiens, UniProt P13569+P31946); experiment: FP assay, 14-3-3β titration at constant compound concentration (apparent KD); format: binding; settings: FC 100 uM
T1 construct: His6 (cleaved yes); made in house; peptide synthetic

[2] = biological target: T2, 14-3-3β/BAD peptide (Homo sapiens, UniProt P31946); experiment: FP assay of 14-3-3 partner protein peptide, BAD; format: binding; settings: for FP signal: BAD peptide, CY007424 100 μM
T2 construct: His6 (cleaved yes); made in house
T2 sequence (P31946 1-246): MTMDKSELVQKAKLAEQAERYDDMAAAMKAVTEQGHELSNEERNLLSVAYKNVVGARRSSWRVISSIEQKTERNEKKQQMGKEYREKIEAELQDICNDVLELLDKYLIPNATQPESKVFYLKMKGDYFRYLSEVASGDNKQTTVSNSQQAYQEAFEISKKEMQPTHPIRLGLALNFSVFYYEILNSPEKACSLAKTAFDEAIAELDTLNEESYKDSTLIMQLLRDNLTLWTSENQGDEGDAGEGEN
Method: (§1) The FITC-labeled peptides were dissolved in FP buffer (10 mM HEPES pH 7.4, 150 mM NaCl, 0.1% Tween20, 1 mg/mL BSA) to a final concentration of 100 nM or 10 nM. For the dose-response assays, a 14-3-3β concentration of 10 μM was used while titrating the compounds in a two-times dilution series and, for the other assays, a dilution series of 14-3-3β was made with constant concentration of compound. The dilution series were made in 384 Corning Black Round Bottom well plates and their polarization was measured with a Tecan Infinite F500 plate reader (ex. = 485 nm, em. = 535 nm). The method of fitting of the curves was: “log(agonist) vs. response – Variable slope (four parameters)” from GraphPad Prism. The equation is Y = Bottom + (Top-Bottom)/(1 + 10^((LogEC50-X)*HillSlope)).
(§2) Supplementary Figure 2. Stabilization of the interaction between 14-3-3β and a collection of different 14-3-3 partner protein peptides by CY00742 4. […] Background polarization was subtracted from all values, n=3 technical replicates. Source data are provided as a Source Data file.
(§3) (1 picture or pasted object on this page, not shown here)

[3] = biological target: T3, 14-3-3β/IRS1 peptide (Homo sapiens, UniProt P31946); experiment: FP assay of 14-3-3 partner protein peptide, IRS1; format: binding; settings: 100 µM compound
T3 construct: His6 (cleaved yes); made in house
T3 sequence (P31946 1-246): T2 sequence (P31946 1-246)
Method: as §1, §2, §3

[4] = biological target: T4, F508del-CFTR in primary CFBE cells (Homo sapiens, UniProt P13569, DEL508-508); experiment: Ussing chamber assay (short-circuit current); format: cell-based; set-up: short-circuit current after stimulation by forskolin and genistein: unit not given here; settings: 18 h
T4 construct: endogenous in cells; host or cells: primary CFBE cells, air-liquid interface culture
T4 sequence (P13569 with tags, fused parts or gaps DEL508-508): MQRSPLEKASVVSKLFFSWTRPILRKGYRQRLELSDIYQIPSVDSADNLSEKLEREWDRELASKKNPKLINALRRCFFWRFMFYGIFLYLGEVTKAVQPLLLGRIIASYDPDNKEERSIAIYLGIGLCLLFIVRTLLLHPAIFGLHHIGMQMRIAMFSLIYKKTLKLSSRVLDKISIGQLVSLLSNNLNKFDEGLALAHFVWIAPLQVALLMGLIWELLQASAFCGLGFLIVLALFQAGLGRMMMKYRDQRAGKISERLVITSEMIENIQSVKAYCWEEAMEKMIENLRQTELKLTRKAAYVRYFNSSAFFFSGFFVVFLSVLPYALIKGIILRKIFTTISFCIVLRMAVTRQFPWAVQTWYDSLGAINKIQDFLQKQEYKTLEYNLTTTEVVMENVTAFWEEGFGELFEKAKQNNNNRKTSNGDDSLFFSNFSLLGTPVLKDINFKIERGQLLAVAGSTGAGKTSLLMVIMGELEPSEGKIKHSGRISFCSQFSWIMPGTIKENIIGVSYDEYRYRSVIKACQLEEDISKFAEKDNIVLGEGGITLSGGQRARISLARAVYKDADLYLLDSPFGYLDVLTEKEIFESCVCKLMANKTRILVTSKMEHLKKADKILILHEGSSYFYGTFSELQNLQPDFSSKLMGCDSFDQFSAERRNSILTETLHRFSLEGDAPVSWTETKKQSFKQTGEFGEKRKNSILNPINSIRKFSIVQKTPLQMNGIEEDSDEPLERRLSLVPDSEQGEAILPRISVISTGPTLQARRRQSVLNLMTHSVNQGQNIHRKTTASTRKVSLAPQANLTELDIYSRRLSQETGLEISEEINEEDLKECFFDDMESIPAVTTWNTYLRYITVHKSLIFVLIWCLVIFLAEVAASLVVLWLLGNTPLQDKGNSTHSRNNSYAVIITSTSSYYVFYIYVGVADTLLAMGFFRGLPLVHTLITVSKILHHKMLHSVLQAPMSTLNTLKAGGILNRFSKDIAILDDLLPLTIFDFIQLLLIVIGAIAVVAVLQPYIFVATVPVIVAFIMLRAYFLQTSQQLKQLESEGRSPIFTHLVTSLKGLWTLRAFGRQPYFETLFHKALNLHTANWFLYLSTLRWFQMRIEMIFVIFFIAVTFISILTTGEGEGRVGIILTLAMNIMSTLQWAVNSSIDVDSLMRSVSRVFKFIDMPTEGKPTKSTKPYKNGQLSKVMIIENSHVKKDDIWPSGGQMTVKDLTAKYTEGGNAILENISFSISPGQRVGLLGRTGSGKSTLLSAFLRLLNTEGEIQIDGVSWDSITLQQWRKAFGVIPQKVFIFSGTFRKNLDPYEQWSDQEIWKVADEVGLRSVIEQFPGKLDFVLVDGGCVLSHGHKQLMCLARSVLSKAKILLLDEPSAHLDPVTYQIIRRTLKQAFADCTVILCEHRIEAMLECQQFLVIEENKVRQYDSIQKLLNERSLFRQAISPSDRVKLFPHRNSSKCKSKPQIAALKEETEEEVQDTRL
Method: Twelve (12) validated hit compounds from the initial screening and focused validation library were tested for their effect on F508del-CFTR trafficking. Baby hamster kidney (BHK) cells expressing 3HA-tagged F508del-CFTR were treated for 24 h with 10 μM compound. After fixation of the cells, a combination of mouse monoclonal anti-HA antibody and anti-mouse IgG conjugated with FITC was used to detect F508del-CFTR that had trafficked to the plasma membrane as described previously. […] Additionally, a fluorescence imaging plate reader (FLIPR) Membrane Potential (FMP) assay was performed. This assay measures real-time membrane potential changes associated with ion channel activation and ion transporter proteins. F508del-CFTR expressing BHK cells were incubated for 24 h with 20 μM compound before treatment with the potentiator genistein, FMP dye, and activator forskolin. The fluorescence intensity is thus a measure for the function of the CFTR protein in the plasma membrane of these cells. The F508del-CFTR corrector VX-809 (lumacaftor) and the triple combination Trikafta® were used as positive controls in this assay. […] Another cellular assay was performed with the Ussing Chamber, which detects and quantifies transport of ions across epithelial tissue. F508del-CFTR expressing cystic fibrosis epithelial (CFBE) cells were treated for 18 h with 20 μM CY007424. After forskolin and genistein stimulation, the short-circuit current of the cells was measured. […]

T1 sequence (P13569 747-774 limits assumed, one chain of several): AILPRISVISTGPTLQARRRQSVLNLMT

## C=CC(C)(C)OC[C@H]1O[C@H](O[C@@H]2C3=C([C@H](C)COC(C)=O)C[C@H](O)[C@]3(C)/C=C3/[C@@H](COC)CC[C@H]3[C@@H](C)[C@H]2O)[C@H](O)[C@@H](OC(C)=O)[C@@H]1O [FC-A, fusicoccin A, reference compound]
[1]; average of no 14-3-3 wells
  Polarization, Everage no 14-3-3: 22.00
[1]; no 14-3-3, peptide 100 nM, replicates, listed as FC
  Polarization, no 14-3-3: 23 and 21 and 22

## N=C(N)NCCCC1NCc2ccccc2Sc2ccccc2CNC(=O)C(Cc2ccc(O)cc2)NC(=O)C(CCCN)NC1=O (centres unmarked) [CY007424]
[2]; 100 µM compound
  stabilization of the 14-3-3/BAD peptide complex: some stabilization of the complex
[2]; 14-3-3β 2.44141e-7 M
  FP signal: 59.3333
[2]; 14-3-3β 4.88281e-7 M
  FP signal: 76.3333 and 74.3333 and 80.3333
[2]; 14-3-3β 9.76563e-7 M
  FP signal: 77.3333 and 83.3333 and 79.3333
[2]; 14-3-3β 1.95313e-6 M
  FP signal: 81.3333 and 79.3333 and 82.3333
[2]; 14-3-3β 3.90625e-6 M
  FP signal: 74.3333 and 75.3333
[3]
  stabilization of the 14-3-3/IRS1 peptide complex: some stabilization of the complex
[4]; 20 μM CY07424, 1 μM VX-809, biological replicates
  short-circuit current after stimulation by forskolin and genistein: 1.424 and 1.182 and 1.788 (2×) and 1.697 and 2.091
[4]; 20 μM, forskolin and genistein stimulation
  conductance (short-circuit current) in words: higher conductance than the DMSO control

— paper PMC9226124, “Macrocycle-stabilization of its interaction with 14-3-3 increases plasma membrane localization and activity of CFTR” (Nature Communications, 2022)
